The values below come from patent US11472803B2, “7-substituted 1-aryl-naphthyridine-3-carboxylic acid amides and use thereof” (Bayer Aktiengesellschaft, priority 2016, dated 2022).

This assay concerns the target T1, human M2 receptor (Homo sapiens, UniProt P08172).
T1 construct: expressed in transfected cells; host or cells: CHO-DUKX (CHO-DUKX-M2-GIRK)
T1 sequence (P08172 1-466): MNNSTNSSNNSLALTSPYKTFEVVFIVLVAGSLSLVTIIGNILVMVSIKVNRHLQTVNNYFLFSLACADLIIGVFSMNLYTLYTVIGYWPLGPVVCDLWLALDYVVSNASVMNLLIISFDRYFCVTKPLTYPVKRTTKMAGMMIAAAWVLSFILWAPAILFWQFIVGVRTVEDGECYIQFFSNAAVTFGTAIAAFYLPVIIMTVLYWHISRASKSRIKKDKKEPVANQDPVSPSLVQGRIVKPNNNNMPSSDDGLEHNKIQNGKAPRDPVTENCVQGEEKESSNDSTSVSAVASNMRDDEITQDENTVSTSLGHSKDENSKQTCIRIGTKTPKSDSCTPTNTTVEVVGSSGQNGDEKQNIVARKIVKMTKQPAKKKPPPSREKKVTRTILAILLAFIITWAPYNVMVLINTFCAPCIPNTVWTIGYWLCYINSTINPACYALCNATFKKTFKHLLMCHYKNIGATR
Kind of assay: Functional M2-GIRK1/4 activation test: allosteric potency (EC50) and efficiency at EC20 acetylcholine. Format: cell-based. The conditions noted are these: CHO-DUKX-M2-GIRK cells; for EC50: voltage-sensitive dye, acetylcholine at EC20, in some cases mean of two or more determinations; for Emax: boosting of the acetylcholine effect at EC20 acetylcholine concentration. The source says: The binding of orthosteric agonists (endogenous ligand: acetylcholine) to the M2 receptor leads to receptor activation or a change in conformation of the receptor in the manner of a shift in equilibrium in favour of the active receptor conformation.
The agonist-induced change in conformation of the M2 receptor results in a Gαi protein activation. […] Under physiological conditions, the result is then a selective efflux of potassium from the cell along the electrochemical gradient. […] The extent of hyperpolarization can therefore be regarded as a measure of the activation of the M2 receptor.
The test cell used is a recombinant CHO-DUKX cell line which has been stably transfected with cDNA coding for the human M2 receptor and with cDNA coding for both GIRK1/4 subunits (CHO-DUKX-M2-GIRK). The transmembrane potential, or the relative changes in the transmembrane potential as a function of substance addition or M2 activation, is determined by means of a voltage-sensitive dye (FLIPR Membrane Potential Assay Kit Blue, Molecular Devices #R8034) and the measurement of cell fluorescence using a proprietary fluorescence imaging instrument.
The sowing medium consisted of MEM alpha medium (supplemented with 5% PCS, 2% Glutamax, no genticin).
For the particular measurement, the medium was removed and the cells were laden with the volt-age-sensitive dye for at least 6 min at room temperature (30 μl of loading buffer per 384-well). This was followed, in a first measurement, by the determination of the fluorescence for the resting transmembrane potential for a period of 5 sec. Thereafter, 10 μl in each case of the test substances diluted in loading buffer were added, followed by a second measurement to determine the transmembrane potential for a period of 50 sec in 1 sec increments. Finally, the cells were admixed with 10 μl of agonist solution (acetylcholine dissolved in loading buffer). Acetylcholine was used at the concentration corresponding to the EC20, which had been determined in a preliminary test. The M2-mediated GIRK1/4 activation or hyperpolarization was then monitored in a third measurement over a period of 60 sec. The EC50 value (degree of allosteric potency of test compound) and the efficiency (measure of the boosting of the acetylcholine effect at an EC20 acetylcholine concentration) were determined with the aid of a 4-parameter logistic function (Hill function).

For the compound `CC(NC(=O)c1cn(-c2ncc(F)cc2F)c2nc(N3C[C@@H](O)[C@H](O)C3)c(F)cc2c1=O)C(F)(F)C(F)(F)F` (mixture of isomers) [Example 39, 1-(3,5-difluoropyridin-2-yl)-7-[(3R,4R)-3,4-dihydroxypyrrolidin-1-yl]-6-fluoro-4-oxo-N-[(2)-3,3,4,4,4-pentafluorobutan-2-yl]-1,4-dihydro-1,8-naphthyridine-3-carboxamide], the EC50 was determined as 20.5 nM and the Emax was found to be 100%.

On to `CCC(NC(=O)c1cn(-c2c(F)cc(F)cc2F)c2nc(N3C[C@@H](O)[C@H](O)C3)c(Br)cc2c1=O)C(F)(F)C(F)(F)F` (mixture of isomers) [Example 157, 6-Bromo-7-[(3R,4R)-3,4-dihydroxypyrrolidin-1-yl]-4-oxo-N-[1,1,1,2,2-pentafluoropentan-3-yl]-1-(2,4,6-trifluorophenyl)-1,4-dihydro-1,8-naphthyridine-3-carboxamide], for which it took 2.6 nM to reach a half-maximal effect (EC50) and the Emax was found to be 100%. The compound `CC(NC(=O)c1cn(-c2c(F)cc(F)cc2F)c2nc(N3C[C@@H](O)[C@H](O)C3)c(F)cc2c1=O)C(F)(F)C(F)(F)F` (mixture of isomers) [Example 8, 7-[(3R,4R)-3,4-Dihydroxypyrrolidin-1-yl]-6-fluoro-4-oxo-N-[3,3,4,4,4-pentafluorobutan-2-yl]-1-(2,4,6-trifluorophenyl)-1,4-dihydro-1,8-naphthyridine-3-carboxamide] registered an Emax of 96%. In turn, `CCC(NC(=O)c1cn(-c2c(F)cc(F)cc2F)c2nc(N3C[C@@H](O)[C@H](O)C3)c(F)cc2c1=O)C(C)C` (mixture of isomers) [Example 28, 7-[(3R,4R)-3,4-Dihydroxypyrrolidin-1-yl]-6-fluoro-N-(2-methylpentan-3-yl)-4-oxo-1-(2,4,6-trifluorophenyl)-1,4-dihydro-1,8-naphthyridine-3-carboxamide] showed an EC50 of 3.15 nM and an Emax of 100%. `CC(NC(=O)c1cn(-c2c(F)cc(F)cc2F)c2nc(N3C[C@@H](O)[C@@H](O)C3)c(F)cc2c1=O)C(F)(F)C(F)(F)F` (mixture of isomers) [Example 92, 7-[(3R,4S)-3,4-Dihydroxypyrrolidin-1-yl]-6-fluoro-4-oxo-N-[3,3,4,4,4-pentafluorobutan-2-yl]-1-(2,4,6-trifluorophenyl)-1,4-dihydro-1,8-naphthyridine-3-carboxamide]: the Emax came to 100%. `CCC(COC(F)(F)F)NC(=O)c1cn(-c2c(F)cc(F)cc2F)c2nc(N3C[C@@H](O)[C@@H](O)C3)c(F)cc2c1=O` (mixture of isomers) [Example 95, 7-[(3R,4S)-3,4-Dihydroxypyrrolidin-1-yl]-6-fluoro-4-oxo-N-[1-(trifluoromethoxy)butan-2-yl]-1-(2,4,6-trifluorophenyl)-1,4-dihydro-1,8-naphthyridine-3-carboxamide] displayed an EC50 of 15.5 nM and an Emax of 100%. `CCC(NC(=O)c1cn(-c2c(F)cc(F)cc2F)c2nc(N3C[C@@H](O)[C@@H](O)C3)c(F)cc2c1=O)C(C)C` (mixture of isomers) [Example 104, 7-[(3R,4S)-3,4-Dihydroxypyrrolidin-1-yl]-6-fluoro-N-[2-methylpentan-3-yl]-6-fluoro-4-oxo-1-(2,4,6-trifluorophenyl)-1,4-dihydro-1,8-naphthyridine-3-carboxamide]: the concentration for a half-maximal effect (EC50) was 13 nM and the Emax amounted to 97%. Taken in the same sequence, the figures for `CCC(COC(F)(F)F)NC(=O)c1cn(-c2c(F)cc(F)cc2F)c2nc(N3CC[C@H](O)C3)c(F)cc2c1=O` (mixture of isomers) [Example 109, 6-Fluoro-7-[(3S)-3-hydroxypyrrolidin-1-yl]-4-oxo-N-[1-(trifluoromethoxy)butan-2-yl]-1-(2,4,6-trifluorophenyl)-1,4-dihydro-1,8-naphthyridine-3-carboxamide] were 7.7 nM and 100%.

Compound `CCC(NC(=O)c1cn(-c2c(F)cc(F)cc2F)c2nc(N3CC[C@H](O)C3)c(F)cc2c1=O)C(C)C` (mixture of isomers) [Example 116, 6-Fluoro-7-[(3S)-3-hydroxypyrrolidin-1-yl]-N-[2-methylpentan-3-yl]-4-oxo-1-(2,4,6-trifluoro-phenyl)-1,4-dihydro-1,8-naphthyridine-3-carboxamide] yielded an EC50 of 3.5 nM and an Emax of 97%.

`CC(C)C(NC(=O)c1cn(-c2c(F)cc(F)cc2F)c2nc(N3C[C@@H](O)[C@@H](O)C3)c(F)cc2c1=O)C(F)(F)F` (mixture of isomers) [Example 123, 7-[(3R,4S)-3,4-Dihydroxypyrrolidin-1-yl]-6-fluoro-4-oxo-N-[1,1,1-trifluoro-3-methylbutan-2-yl]-1-(2,4,6-trifluorophenyl)-1,4-dihydro-1,8-naphthyridine-3-carboxamide] returned an EC50 of 3.1 nM and an Emax of 100%. Taken in the same sequence, the figures for `CC(C)C(NC(=O)c1cn(-c2c(F)cc(F)cc2F)c2nc(N3CC[C@H](O)C3)c(F)cc2c1=O)C(F)(F)F` (mixture of isomers) [Example 126, 6-Fluoro-7-[(3S)-3-hydroxypyrrolidin-1-yl]-4-oxo-N-[1,1,1-trifluoro-3-methylbutan-2-yl]-1-(2,4,6-trifluorophenyl)-1,4-dihydro-1,8-naphthyridine-3-carboxamide] were 3.9 nM and 97%. For `CC(NC(=O)c1cn(-c2ncc(F)cc2F)c2nc(N3CC[C@H](O)C3)c(F)cc2c1=O)C(F)(F)C(F)(F)F` (mixture of isomers) [Example 127, 1-(3,5-Difluoropyridin-2-yl)-6-fluoro-7-[(3S)-3-hydroxypyrrolidin-1-yl]-4-oxo-N-[3,3,4,4,4-pentafluorobutan-2-yl]-1,4-dihydro-1,8-naphthyridine-3-carboxamide], in that order: 13 nM and 92%. For `O=C(NC(c1ccccc1Cl)C(F)(F)F)c1cn(-c2c(F)cc(F)cc2F)c2nc(N3C[C@@H](O)[C@H](O)C3)c(F)cc2c1=O` (mixture of isomers) [Example 131, N-[1-(2-Chlorophenyl)-2,2,2-trifluoroethyl]-7-[(3R,4R)-3,4-dihydroxypyrrolidin-1-yl]-6-fluoro-4-oxo-1-(2,4,6-trifluorophenyl)-1,4-dihydro-1,8-naphthyridine-3-carboxamide], in that order: 4.6 nM and 100%. For `O=C(NC(c1ccccc1Cl)C(F)(F)F)c1cn(-c2ccc(F)cc2F)c2ncc(Cl)cc2c1=O` (racemic) [Example 134, 6-Chloro-N-[1-(2-chlorophenyl)-2,2,2-trifluoroethyl]-1-(2,4-difluorophenyl)-4-oxo-1,4-dihydro-1,8-naphthyridine-3-carboxamide], the EC50 is 1830 nM and the Emax worked out at 55%. For `CC(COC(F)(F)F)NC(=O)c1cn(-c2ccc(F)cc2F)c2ncc(Cl)cc2c1=O` (racemic) [Example 135, 6-Chloro-1-(2,4-difluorophenyl)-4-oxo-N-[1-(trifluoromethoxy)propan-2-yl]-1,4-dihydro-1,8-naphthyridine-3-carboxamide], in that order: 2610 nM and 75%.

`CC(NC(=O)c1cn(-c2c(F)cc(F)cc2F)c2nc(N3CCOCC3)c(F)cc2c1=O)C(F)(F)C(F)(F)F` (racemic) [Example 146, 6-Fluoro-7-(morpholin-4-yl)-4-oxo-N-[3,3,4,4,4-pentafluorobutan-2-yl]-1-(2,4,6-trifluoro-phenyl)-1,4-dihydro-1,8-naphthyridine-3-carboxamide] gave an EC50 of 12 nM and an Emax of 100%.

On to `CCC(NC(=O)c1cn(-c2c(F)cc(F)cc2F)c2nc(N3CCOCC3)c(F)cc2c1=O)C(F)(F)C(F)(F)F` (racemic) [Example 148, 6-Fluoro-7-(morpholin-4-yl)-4-oxo-N-[1,1,1,2,2-pentafluoropentan-3-yl]-1-(2,4,6-trifluoro-phenyl)-1,4-dihydro-1,8-naphthyridine-3-carboxamide], for which the response was half-maximal at 18.7 nM (EC50) and the Emax stood at 96%.

One may read the EC50 as the concentration needed to bring the measured effect to its halfway point. Low readings indicate higher potency in that assay, high ones lower potency in that assay. Usually Emax stands for the maximal effect, on the per cent scale that the assay sets.
